± gives the expanded uncertainty stated by the source.
Assay: mn = molality of the nth substance listed, in mol/kg
Conditions: 100 kPa, Liquid; for speed of sound: Frequency=3 MHz, Sing-around technique in a fixed-path interferometer; for mass density: Vibrating tube method

O=C(CO)[C@@H](O)[C@H](O)[C@H](O)CO [D-fructose] + O
Conditions	mass density, 288.15 K [kg/m3]	mass density, 293.15 K [kg/m3]	mass density, 298.15 K [kg/m3]	mass density, 303.15 K [kg/m3]	mass density, 308.15 K [kg/m3]	speed of sound, 288.15 K [m/s]	speed of sound, 298.15 K [m/s]	speed of sound, 303.15 K [m/s]	speed of sound, 308.15 K [m/s]
m1 = 0.05	1003.31 ± 0.16	1002.37 ± 0.16	1001 ± 0.16	999.53 ± 0.16	998.08 ± 0.16	–	–	1512.2 ± 2.2	–
m1 = 0.15	–	1009.21 ± 0.16	–	–	1004.78 ± 0.16	–	–	1518.1 ± 2.2	–
m1 = 0.25	1017.01 ± 0.17	1015.91 ± 0.17	1014.56 ± 0.17	1013.07 ± 0.17	–	1484.3 ± 2.2	1513 ± 2.2	–	1534.2 ± 2.2
m1 = 0.35	1023.52 ± 0.17	1022.43 ± 0.17	1021.07 ± 0.17	1019.48 ± 0.17	1017.69 ± 0.17	1491.3 ± 2.2	1519.1 ± 2.2	1530.3 ± 2.2	1539.9 ± 2.2
